Ki and melting point data for 17 molecules are collected here from patent US8921397B2, “Benzofurane-piperidine compounds” (Hoffmann-La Roche Inc., priority 2011, dated 2014).

Each structure is given as a SMILES string.

One data set addresses human 5-HT2A receptor (Homo sapiens (Human), UniProt P28223). Briefly: Radioligand binding ([3H]-ketanserin) to human 5-HT2A receptor, HEK293 EBNA membranes. The settings on record: HEK293 EBNA cells expressing human 5-HT2A receptor. As to the method: The ability of the compounds to bind to the 5-HT2A, D3 and D2 receptors was determined using radioligand binding to cloned receptors selectively expressed in HEK-293 EBNA cells.
(§1) HEK293 EBNA cells were transiently transfected with expression plasmids encoding for the human D2 or D3 or for the human 5-HT2A receptor, respectively. The cells were harvested 48 h post-transfection, washed three times with cold PBS and stored at −80° C. prior to use. The pellet was suspended in cold 50 mM Tris-HCl buffer containing 10 mM EDTA (pH 7.4) and was homogenized with a Polytron (Kinematica AG, Basel, Switzerland) for 20-30 sec at 12.000 rpm. After centrifugation at 48.000×g for 30 min at 4° C., the pellet was resuspended in cold 10 mM Tris-HCl buffer containing 0.1 mM EDTA (pH 7.4), homogenized, and centrifuged as above. This pellet was further resuspended in a smaller volume of ice cold 10 mM Tris-HCl buffer containing 0.1 mM EDTA (pH 7.4) and homogenized with a Polytron for 20-30 sec at 12.000 rpm. The protein content of this homogenate was determined with the Bio-Rad (Bradford) Protein Assay (Biorad Laboratories GmbH, München, Germany) according to the instructions of the manufacturer using gamma globulin as the standard. This homogenate was stored at −80° C. in aliquots and thawed immediately prior to use.
(§2) Aliquots of membrane preparations were thawed at RT, resuspended in assay buffer (D2, D3: 50 mM Tris-HCl, 120 mM NaCl, 5 mM MgCl2, 1 mM EDTA, 5 mM KCl, 1.5 mM CaCl2, pH=7.4; 5-HT2A: 50 mM Tris-HCl, 10 mM MgCl2, 1 mM EGTA, pH=7.4), homogenized with a Polytron for 20-30 sec at 12.000 rpm and adjusted to a final concentration of approximately 7.5 μg protein/well (D2, D3) and 15 μg protein/well (5-HT2A), respectively.
(§3) The binding affinity (Ki) of the compounds was determined using radioligand binding.
(§4) Membranes were incubated in a total volume of 200 μl with a fixed concentration of radioligand (final concentration approximately 0.7 nM [^3H]-spiperone for D2, 0.5 nM [^3 H]-spiperone for D3, and 1.1 nM [^3H]-ketanserin for 5-HT2A) and ten concentrations of test compound in ranging between 10 μM-0.1 nM for 1 h at RT. At the end of the incubation, the reaction mixtures were filtered on to unifilter 96-well white microplates with bonded GF/C filters (Packard BioScience, Zürich, Switzerland; preincubated for 1 h in 0.1% polyethylenimine (PEI) in assay buffer) with a Filtermate 196 harvester (Packard BioScience) and washed 3 times with cold assay buffer. The nonspecific binding was determined with equally composed reaction mixtures in the presence of 10 μM unlabelled spiperone. Per well 45 μl of Microscint 40 (Perkin Elmer, Schwerzenbach, Switzerland) was added, plates for sealed, shaken for 20 min and counted for 3 min on a Topcount Microplate Scintillation Counter (Canberra Packard SA, Zürich, Switzerland) with quenching correction.
(§5) The CPM value for each duplicate of a concentration of competing compound was averaged (y1), then the % specific binding was calculated according to the equation (((y1−non-specific)/(total binding−non-specific))×100). Graphs were plotted with the % specific binding using XLfit, a curve-fitting program that iteratively plots the data using Levenberg-Marquardt algorithm. The single site competition analysis equation used was y=A+((B−A)/(1+((x/C)D))), where y is the % specific binding, A is the minimum y, B is the maximum y, C is the IC50, x is the log 10 of the concentration of the competing compound and D is the slope of the curve (the Hill Coefficient). From these curves the IC50 (inhibition concentration at which 50% specific binding of the radioligand was displaced) and Hill coefficient were determined. The affinity constant (Ki) was calculated using the Cheng-Prusoff equation Ki=(IC50/1+([L]/Kd), where [L] is the concentration of radioligand and Kd is the dissociation constant of the radioligand at the receptor as determined by the saturation isotherm.

A further data set concerns the target human D2 receptor (Homo sapiens (Human), UniProt P14416). Description: Radioligand binding ([3H]-spiperone) to human D2 receptor, HEK293 EBNA membranes. The settings on record: HEK293 EBNA cells expressing human D2 receptor. As to the method: as §1, §2, §3, §4, §5
For a further data set, the target named is human D3 receptor (Homo sapiens (Human), UniProt P35462). Description: Radioligand binding ([3H]-spiperone) to human D3 receptor, HEK293 EBNA membranes. The settings on record: HEK293 EBNA cells expressing human D3 receptor. The method, then:
as §1, §2, §3, §4, §5

human 5-HT2A receptor, sequence (P28223 whole entry): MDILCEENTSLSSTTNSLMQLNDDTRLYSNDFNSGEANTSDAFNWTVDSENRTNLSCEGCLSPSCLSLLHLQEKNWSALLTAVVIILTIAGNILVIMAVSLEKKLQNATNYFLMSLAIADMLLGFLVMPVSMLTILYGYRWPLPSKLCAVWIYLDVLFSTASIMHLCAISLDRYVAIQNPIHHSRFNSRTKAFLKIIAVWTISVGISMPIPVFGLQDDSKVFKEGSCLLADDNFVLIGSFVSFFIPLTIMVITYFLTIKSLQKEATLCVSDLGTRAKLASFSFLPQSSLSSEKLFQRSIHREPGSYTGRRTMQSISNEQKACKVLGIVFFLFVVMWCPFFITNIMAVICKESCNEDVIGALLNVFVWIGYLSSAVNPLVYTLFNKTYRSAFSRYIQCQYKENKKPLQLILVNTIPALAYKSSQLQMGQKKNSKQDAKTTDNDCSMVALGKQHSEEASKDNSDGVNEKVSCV
human D3 receptor, sequence (P35462 whole entry): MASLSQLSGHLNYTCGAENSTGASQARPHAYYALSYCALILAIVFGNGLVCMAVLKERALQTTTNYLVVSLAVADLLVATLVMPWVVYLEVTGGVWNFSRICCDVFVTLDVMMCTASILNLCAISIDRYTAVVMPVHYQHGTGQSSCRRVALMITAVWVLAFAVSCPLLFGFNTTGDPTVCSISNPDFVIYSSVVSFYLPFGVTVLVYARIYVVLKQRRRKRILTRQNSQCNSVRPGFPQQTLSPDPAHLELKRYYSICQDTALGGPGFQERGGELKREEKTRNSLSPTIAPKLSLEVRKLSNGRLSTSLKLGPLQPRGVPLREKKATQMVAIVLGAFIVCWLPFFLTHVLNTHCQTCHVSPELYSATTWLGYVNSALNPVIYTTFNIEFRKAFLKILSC
human D2 receptor, sequence (P14416 whole entry): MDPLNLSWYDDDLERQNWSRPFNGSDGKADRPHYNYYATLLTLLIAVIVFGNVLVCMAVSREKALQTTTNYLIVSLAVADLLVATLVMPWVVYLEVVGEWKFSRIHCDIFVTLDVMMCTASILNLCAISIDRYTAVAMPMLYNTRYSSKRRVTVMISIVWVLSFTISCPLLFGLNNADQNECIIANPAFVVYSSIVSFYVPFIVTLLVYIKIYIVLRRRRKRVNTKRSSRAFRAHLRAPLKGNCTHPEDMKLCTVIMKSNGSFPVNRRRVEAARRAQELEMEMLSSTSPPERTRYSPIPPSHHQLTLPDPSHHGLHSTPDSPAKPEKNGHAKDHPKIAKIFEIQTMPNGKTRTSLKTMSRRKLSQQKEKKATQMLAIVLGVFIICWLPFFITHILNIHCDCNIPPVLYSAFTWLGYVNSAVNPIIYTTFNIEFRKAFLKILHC

In the case of `CC#CC(=O)N[C@H]1CC[C@H](CCN2CCC(c3coc4ccccc34)CC2)CC1` [Example 55, But-2-ynoic acid trans-{4-[2-(4-benzofuran-3-yl-piperidin-1-yl)-ethyl]-cyclohexyl}-amide], the melting point – broadly, the temperature, or range, at which the solid turns liquid – was 161 °C. Further, on human 5-HT2A receptor, the Ki (usually a measure of affinity in units of concentration, obtained from inhibition or displacement) stood at 7.89 nM. In addition, on human D2 receptor, the Ki was 25.6 nM. The inhibition constant Ki on human D3 receptor was found to be 2.09 nM.
In the same order, the values of `CC(C)c1ccc(C(=O)N[C@H]2CC[C@H](CCN3CCC(c4coc5ccccc45)CC3)CC2)cc1` [Example 83, trans-N-{4-[2-(4-Benzofuran-3-yl-piperidin-1-yl)-ethyl]-cyclohexyl}-4-isopropyl-benzamide] are 188 °C, 2.6 nM, 402 nM and 4.8 nM.
With `Cc1cc(C(=O)N[C@H]2CC[C@H](CCN3CCC(c4coc5ccccc45)CC3)CC2)on1` [Example 41, 3-Methyl-isoxazole-5-carboxylic acid trans-{4-[2-(4-benzofuran-3-yl-piperidin-1-yl)-ethyl]-cyclohexyl}-amide], the melting point turned out to be 178 °C. On human 5-HT2A receptor, the Ki was found to be 9.21 nM. Besides, the Ki on human D2 receptor is 36.4 nM. For the same molecule, at human D3 receptor, the Ki was 4.23 nM.
In the same order, the values of `O=C(CCO)N[C@H]1CC[C@H](CCN2CCC(c3coc4ccccc34)CC2)CC1` [Example 21, trans-N-{4-[2-(4-Benzofuran-3-yl-piperidin-1-yl)-ethyl]-cyclohexyl}-3-hydroxy-propionamide] are 148 °C, 8.26 nM, 62.9 nM and 1.27 nM.
In the same order, the values of `O=C(N[C@H]1CC[C@H](CCN2CCC(c3coc4ccccc34)CC2)CC1)c1ccc(N2CCOCC2)nc1` [Example 65, trans-N-{4-[2-(4-Benzofuran-3-yl-piperidin-1-yl)-ethyl]-cyclohexyl}-6-morpholin-4-yl-nicotinamide] are 215 °C, 7.56 nM, 51.8 nM and 3.49 nM.
In the same order, the values of `O=C(N[C@H]1CC[C@H](CCN2CCC(c3coc4ccccc34)CC2)CC1)C1CCCO1` (mixture of isomers) [Example 18, (RS)-Tetrahydro-furan-2-carboxylic acid trans-{4-[2-(4-benzofuran-3-yl-piperidin-1-yl)-ethyl]-cyclohexyl}-amide] are 132 °C, 2.88 nM, 81.5 nM and 9.2 nM.
As for `N#Cc1ccc(C(=O)N[C@H]2CC[C@H](CCN3CCC(c4coc5ccccc45)CC3)CC2)cc1` [Example 70, trans-N-{4-[2-(4-Benzofuran-3-yl-piperidin-1-yl)-ethyl]-cyclohexyl}-4-cyano-benzamide], the melting point was 195 °C. The Ki on human 5-HT2A receptor was 5.89 nM. In addition, the Ki on human D2 receptor was found to be 15.2 nM. In addition, at human D3 receptor, the Ki was found to be 2.68 nM.
In the same order, the values of `O=C(N[C@H]1CC[C@H](CCN2CCC(c3coc4ccccc34)CC2)CC1)c1ccc(N2CCOCC2)cc1` [Example 13, trans-N-{4-[2-(4-Benzofuran-3-yl-piperidin-1-yl)-ethyl]-cyclohexyl}-4-morpholin-4-yl-benzamide] are 249 °C, 11.1 nM, 406 nM and 7.4 nM.
Consider `O=C(N[C@H]1CC[C@H](CCN2CCC(c3coc4ccccc34)CC2)CC1)c1ccc(-n2cccn2)cc1` [Example 59, trans-N-[4-{2-(4-Benzofuran-3-yl-piperidin-1-yl)-ethyl]-cyclohexyl}-4-pyrazol-1-yl-benzamide], for which the melting point was determined as 205 °C. For the same molecule, the Ki at human 5-HT2A receptor was found to be 22.2 nM. In addition, at human D2 receptor, the Ki worked out at 46.9 nM. In addition, the Ki at human D3 receptor was 5.73 nM.
In the same order, the values of `CS(=O)(=O)N[C@H]1CC[C@H](CCN2CCC(c3coc4ccccc34)CC2)CC1` [Example 36, trans-N-{4-[2-(4-Benzofuran-3-yl-piperidin-1-yl)-ethyl]-cyclohexyl}-methanesulfonamide] are 142 °C, 5.43 nM, 47.4 nM and 2.85 nM.
In the same order, the values of `COCCC(=O)N[C@H]1CC[C@H](CCN2CCC(c3coc4ccccc34)CC2)CC1` [Example 2, trans-N-{4-[2-(4-Benzofuran-3-yl-piperidin-1-yl)-ethyl]-cyclohexyl}-3-methoxy-propionamide] are 136 °C, 4.63 nM, 71.2 nM and 1.22 nM.
`O=C(N[C@H]1CC[C@H](CCN2CCC(c3coc4ccccc34)CC2)CC1)c1ccc(Cl)cc1` [Example 49, trans-N-{4-[2-(4-Benzofuran-3-yl-piperidin-1-yl)-ethyl]-cyclohexyl}-4-chloro-benzamide] yielded a melting point of 203 °C. Moreover, on human 5-HT2A receptor, the Ki worked out at 9.01 nM. The Ki at human D2 receptor was found to be 25.8 nM. On human D3 receptor, the Ki came to 3.22 nM.
In the same order, the values of `O=CN[C@H]1CC[C@H](CCN2CCC(c3coc4ccccc34)CC2)CC1` [Example 56, trans-N-{4-[2-(4-Benzofuran-3-yl-piperidin-1-yl)-ethyl]-cyclohexyl}-formamide] are 155 °C, 13.4 nM, 38.8 nM and 2.68 nM.
Molecule `CS(=O)(=O)CC(=O)N[C@H]1CC[C@H](CCN2CCC(c3coc4ccccc34)CC2)CC1` [Example 7, trans-N-{4-[2-(4-Benzofuran-3-yl-piperidin-1-yl)-ethyl]-cyclohexyl}-2-methanesulfonyl-acetamide] displayed a melting point of 187 °C. Besides, at human 5-HT2A receptor, the Ki is 3.54 nM. Further, the inhibition constant Ki on human D2 receptor was 50.8 nM. The Ki at human D3 receptor was found to be 1.45 nM.
In the same order, the values of `CC(C)=CC(=O)N[C@H]1CC[C@H](CCN2CCC(c3coc4ccccc34)CC2)CC1` [Example 53, 3-Methyl-but-2-enoic acid trans-{4-[2-(4-benzofuran-3-yl-piperidin-1-yl)-ethyl]-cyclohexyl}-amide] are 147 °C, 9.68 nM, 18 nM and 2.83 nM.
For `O=C(N[C@H]1CC[C@H](CCN2CCC(c3coc4ccccc34)CC2)CC1)C1CCOC1` (mixture of isomers) [Example 17, (RS)-Tetrahydro-furan-3-carboxylic acid trans-{4-[2-(4-benzofuran-3-yl-piperidin-1-yl)-ethyl]-cyclohexyl}-amide], the melting point was 183 °C. The Ki at human 5-HT2A receptor stood at 5.93 nM. For the same molecule, the Ki at human D2 receptor was determined as 53 nM.
`O=C(CC1COCCO1)N[C@H]1CC[C@H](CCN2CCC(c3coc4ccccc34)CC2)CC1` (mixture of isomers) [Example 8, trans-N-{4-[2-(4-Benzofuran-3-yl-piperidin-1-yl)-ethyl]-cyclohexyl}-(RS)-2-[1,4]dioxan-2-yl-acetamide] gave a melting point of 172 °C. The Ki on human 5-HT2A receptor came out at 2.04 nM. Further, on human D3 receptor, the Ki worked out at 2.02 nM.
